The results in this text go back to ChEMBL document CHEMBL1132023, “Synthesis and anticancer evaluation of certain alpha-methylene-gamma-(4-substituted phenyl)-gamma-butyrolactone bearing thymine, uracil, and 5-bromouracil” (1999).

Common to all, as to format: functional
What all share (details): Homo sapiens

For assay [1], the system named is NCI-H460. Put plainly: In vitro inhibition of Non-Small Cell Lung Cancer NCI-H460 cell lines.
Assay [2] has as its system SNB-19. Put plainly: In vitro inhibition of CNS Cancer SNB-19 cell lines(least sensitive cell).
The test system of the next assay is U-251. Put plainly: In vitro inhibition of CNS Cancer U-251 cell lines.
Another assay has as its system PC-3. Kind of assay: In vitro inhibition of Prostate Cancer PC-3 cell lines.
In another assay the test system is IGROV-1. Kind of assay: In vitro inhibition of Ovarian Cancer IGROV1 cell lines.
Assay [3] concerns COLO 205. Put plainly: In vitro inhibition of Colon Cancer COLO 205 cell lines.
A further assay concerns SK-OV-3. Kind of assay: In vitro inhibition of Ovarian Cancer SK-OV-3 cell lines.
The next assay has as its system DU-145. Kind of assay: In vitro inhibition of Prostate Cancer DU-145 cell lines.
The next assay relates to A549. Kind of assay: In vitro inhibition of Non-Small Cell Lung Cancer A549/ATCC cell lines.
The subject of assay [4] is Hs-578T. Kind of assay: In vitro inhibition of Breast Cancer Hs 578.T cell lines.
Assay [5] concerns RPMI-8226. Kind of assay: In vitro inhibition of Leukemia RPMI-8226 cell lines.
The test system of another assay is TK-10. Kind of assay: In vitro inhibition of Renal Cancer TK-10 cell lines.
Assay [6] deals with HL-60. Put plainly: In vitro inhibition of Leukemia HL-60(TB) cell lines(most sensitive cell).
The test system of the next assay is MDA-MB-435. Kind of assay: In vitro inhibition of Breast Cancer MDA-MB-435 cell lines.
Another assay relates to SW-620. Put plainly: In vitro inhibition of Colon Cancer SW-620 cell lines.
A further assay relates to LOX IMVI. Kind of assay: In vitro inhibition of Melanoma LOX IM VI cell lines.
The subject of a further assay is Malme-3M. Put plainly: In vitro inhibition of Melanoma MALME-3M cell lines.
Another assay deals with ACHN. Put plainly: In vitro inhibition of Renal Cancer ACHN cell lines.
Assay [7] relates to SNB-19. Kind of assay: In vitro inhibition of CNS Cancer SNB-19 cell lines.
Assay [8] deals with COLO 205. Put plainly: In vitro inhibition of Colon Cancer COLO 205 cell lines( most sensitive cell).
Assay [9] concerns Hs-578T. Put plainly: In vitro inhibition of Breast Cancer Hs 578.T cell lines( least sensitive cell).
The subject of assay [10] is HL-60. Put plainly: In vitro inhibition of Leukemia HL-60(TB) cell lines.
Assay [11] relates to RPMI-8226. Kind of assay: In vitro inhibition of Leukemia RPMI-8226 cell lines( most sensitive cell).
Assay [12] relates to NCI-H460. Put plainly: In vitro inhibition of Non-Small Cell Lung Cancer NCI-H460 cell lines(least sensitive cell).
Assay [13] concerns HL-60. Kind of assay: In vitro inhibition of Leukemia HL-60(TB) cell lines ( most sensitive cell).
In assay [14] the test system is HL-60. Put plainly: In vitro inhibition of Leukemia HL-60(TB) cell lines( most sensitive cell).
Assay [15] has as its system SNB-19. Kind of assay: In vitro inhibition of CNS Cancer SNB-19 cell lines( least sensitive cell).
Assay [16] concerns Hs-578T. Put plainly: In vitro inhibition of Breast Cancer Hs 578.T cell lines(The least sensitive cell).
Assay [17] concerns NCI-H460. Put plainly: In vitro inhibition of Non-Small Cell Lung Cancer NCI-H460 cell lines( least sensitive cell).

As to `C=C1CC(Cn2cc(Br)c(=O)[nH]c2=O)(c2ccc(-c3ccccc3)cc2)OC1=O` (configuration not stated), the GI50 was 10.5 µM in the assay with NCI-H460 [1]; 14.5 µM with SNB-19 [2]; 5.75 µM in the assay with U-251; 1.26 µM in the assay on PC-3; 1.2 µM in the assay on IGROV-1; 0.355 µM in the assay on COLO 205 [3]. The GI50 was 6.03 µM in the assay on SK-OV-3; 1.07 µM in the assay on DU-145; 6.17 µM with A549; 4.79 µM with Hs-578T [4]; 0.129 µM with RPMI-8226 [5]; 0.126 µM in the assay on TK-10. For the same compound, the GI50 in the assay with HL-60 [6] is 0.0457 µM; in the assay on MDA-MB-435 it was 1 µM; in the assay with SW-620 it was 0.282 µM; with LOX IMVI it was 0.851 µM; in the assay with Malme-3M, 1.55 µM; in the assay on ACHN, 2.51 µM.

As to `C=C1CC(Cn2ccc(=O)[nH]c2=O)(c2ccc(F)cc2)OC1=O` (configuration not stated), the GI50 is 13.8 µM with NCI-H460 [1]; 15.5 µM in the assay on U-251; 16.2 µM in the assay on PC-3; 13.2 µM in the assay on IGROV-1; 14.8 µM in the assay with SNB-19 [7]; 15.1 µM with SK-OV-3. For the same compound, the GI50 was 15.1 µM with DU-145; 3.02 µM in the assay with COLO 205 [8]; 17 µM with A549; 20.4 µM with Hs-578T [9]; 3.72 µM in the assay on HL-60 [10]; 5.37 µM in the assay with RPMI-8226 [5]. Besides, the concentration for 50% growth inhibition (GI50) in the assay with TK-10 was 14.5 µM; with MDA-MB-435, 10.7 µM; in the assay on SW-620, 4.9 µM; in the assay with LOX IMVI it was 6.03 µM; in the assay with Malme-3M, 7.59 µM; in the assay on ACHN, 13.2 µM.

On to `C=C1CC(Cn2cc(Br)c(=O)[nH]c2=O)(c2ccc(F)cc2)OC1=O` (configuration not stated), for which the GI50 is 8.51 µM in the assay with U-251; 0.468 µM with RPMI-8226 [11]; 11.7 µM with PC-3; 12.9 µM in the assay on IGROV-1; 19.5 µM with SNB-19 [7]; 2.24 µM in the assay on COLO 205 [3]. Also, the GI50 is 16.6 µM with SK-OV-3; 16.2 µM with DU-145; 20.9 µM with NCI-H460 [12]; 1.74 µM with HL-60 [10]; 14.5 µM with Hs-578T [4]; 17 µM with TK-10. For the same compound, the GI50 in the assay with MDA-MB-435 is 4.07 µM; in the assay on SW-620, 2.75 µM; in the assay on LOX IMVI, 3.39 µM; in the assay on Malme-3M, 4.57 µM; in the assay on ACHN, 4.47 µM.

Turning to `C=C1CC(Cn2cc(C)c(=O)[nH]c2=O)(c2ccc(-c3ccccc3)cc2)OC1=O` (configuration not stated), the GI50 with NCI-H460 [1] is 13.8 µM; in the assay on U-251, 13.2 µM; in the assay on PC-3 it was 2.51 µM; in the assay on IGROV-1 it was 1.91 µM; with HL-60 [13], 0.234 µM; with SNB-19 [7] it was 16.6 µM. In addition, the 50% growth inhibitory concentration (GI50) with COLO 205 [3] is 1.41 µM; in the assay on SK-OV-3 it was 13.5 µM; in the assay on DU-145, 1.66 µM; with A549 it was 12.3 µM; with Hs-578T [9], 25.7 µM; in the assay on RPMI-8226 [5], 0.646 µM. In addition, the GI50 was 1.58 µM in the assay on TK-10; 2 µM in the assay on MDA-MB-435; 1.02 µM with SW-620; 1.74 µM with LOX IMVI; 3.72 µM with Malme-3M; 7.59 µM with ACHN.

On to `C=C1CC(Cn2ccc(=O)[nH]c2=O)(c2ccc(-c3ccccc3)cc2)OC1=O` (configuration not stated), for which the concentration for 50% growth inhibition (GI50) in the assay with NCI-H460 [1] is 10.2 µM; in the assay on U-251, 10 µM; in the assay on PC-3 it was 1.32 µM; with HL-60 [14], 0.105 µM; with IGROV-1 it was 0.708 µM; in the assay on COLO 205 [3], 0.174 µM. The GI50 is 10.5 µM with SK-OV-3; 0.2 µM in the assay with DU-145; 10.7 µM with A549; 17.4 µM with SNB-19 [15]; 7.41 µM in the assay with Hs-578T [4]; 0.214 µM in the assay on RPMI-8226 [5]. Also, the concentration for 50% growth inhibition (GI50) was 0.955 µM with TK-10; 0.49 µM in the assay on MDA-MB-435; 0.17 µM in the assay on SW-620; 0.209 µM in the assay on LOX IMVI; 1.58 µM in the assay on Malme-3M; 2.29 µM with ACHN.

In the case of `C=C1CC(Cn2cc(C)c(=O)[nH]c2=O)(c2ccc(F)cc2)OC1=O` (configuration not stated), the GI50 with U-251 was 11.5 µM; in the assay on PC-3 it was 9.12 µM; in the assay with IGROV-1 it was 5.5 µM; in the assay on SNB-19 [7], 14.8 µM; with SK-OV-3, 16.2 µM; in the assay on DU-145 it was 7.59 µM. In addition, the GI50 in the assay on COLO 205 [8] is 1.58 µM; with A549, 17.8 µM; with HL-60 [10], 2.57 µM; in the assay on Hs-578T [16], 19.1 µM; in the assay on RPMI-8226 [5], 3.55 µM; in the assay with TK-10, 4.57 µM. The GI50 with MDA-MB-435 was 5.62 µM; in the assay on SW-620, 3.63 µM; in the assay on LOX IMVI, 4.27 µM; in the assay on Malme-3M, 3.55 µM; with NCI-H460 [17] it was 19.1 µM; in the assay with ACHN it was 3.55 µM.
